Assay results published in patent US12539292B2, “BRM targeting compounds and associated methods of use” (Arvinas Operations, Inc., priority 2018, dated 2026).
Where two headings read alike, the source gives them in different places.

Biological target: T1, BRM (Homo sapiens, UniProt P51531)
T1 construct: In-Cell Western Screen of BRM Degradation in SW1573 Cells; endogenous in cells; host or cells: SW1573
Assay: In-cell Western screen of BRM degradation in SW1573 cells (Dmax and DC50)
Type: cell-based
Method in brief: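 SW1573 cells were treated overnight (18-20 hours) with compound at 0.1% final DMSO. They were then PFA-fixed, permeabilised with Triton X-100 and immunostained with 800 nm/680 nm secondary antibodies. BRM signal was quantified by LI-COR in-cell Western imaging to derive Dmax and DC50.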

[1] = BRM degradation, SW1573 cells, read-out: DC50
[2] = BRM degradation, SW1573 cells, when tested at the top concentration of between 0.3 and 10 μM, read-out: Dmax (%) (% degraded)
[3] = target protein degradation, read-out: BRM DC50
[4] = BRM degradation, SW1573 cells, Table 2D, read-out: **Dmax (%) (% degraded)
[5] = BRM degradation, SW1573 cells, Table 2D, read-out: *DC50
[6] = BRM degradation, SW1573 cells, read-out: Dmax (% degraded)

T1 sequence (P51531 whole entry): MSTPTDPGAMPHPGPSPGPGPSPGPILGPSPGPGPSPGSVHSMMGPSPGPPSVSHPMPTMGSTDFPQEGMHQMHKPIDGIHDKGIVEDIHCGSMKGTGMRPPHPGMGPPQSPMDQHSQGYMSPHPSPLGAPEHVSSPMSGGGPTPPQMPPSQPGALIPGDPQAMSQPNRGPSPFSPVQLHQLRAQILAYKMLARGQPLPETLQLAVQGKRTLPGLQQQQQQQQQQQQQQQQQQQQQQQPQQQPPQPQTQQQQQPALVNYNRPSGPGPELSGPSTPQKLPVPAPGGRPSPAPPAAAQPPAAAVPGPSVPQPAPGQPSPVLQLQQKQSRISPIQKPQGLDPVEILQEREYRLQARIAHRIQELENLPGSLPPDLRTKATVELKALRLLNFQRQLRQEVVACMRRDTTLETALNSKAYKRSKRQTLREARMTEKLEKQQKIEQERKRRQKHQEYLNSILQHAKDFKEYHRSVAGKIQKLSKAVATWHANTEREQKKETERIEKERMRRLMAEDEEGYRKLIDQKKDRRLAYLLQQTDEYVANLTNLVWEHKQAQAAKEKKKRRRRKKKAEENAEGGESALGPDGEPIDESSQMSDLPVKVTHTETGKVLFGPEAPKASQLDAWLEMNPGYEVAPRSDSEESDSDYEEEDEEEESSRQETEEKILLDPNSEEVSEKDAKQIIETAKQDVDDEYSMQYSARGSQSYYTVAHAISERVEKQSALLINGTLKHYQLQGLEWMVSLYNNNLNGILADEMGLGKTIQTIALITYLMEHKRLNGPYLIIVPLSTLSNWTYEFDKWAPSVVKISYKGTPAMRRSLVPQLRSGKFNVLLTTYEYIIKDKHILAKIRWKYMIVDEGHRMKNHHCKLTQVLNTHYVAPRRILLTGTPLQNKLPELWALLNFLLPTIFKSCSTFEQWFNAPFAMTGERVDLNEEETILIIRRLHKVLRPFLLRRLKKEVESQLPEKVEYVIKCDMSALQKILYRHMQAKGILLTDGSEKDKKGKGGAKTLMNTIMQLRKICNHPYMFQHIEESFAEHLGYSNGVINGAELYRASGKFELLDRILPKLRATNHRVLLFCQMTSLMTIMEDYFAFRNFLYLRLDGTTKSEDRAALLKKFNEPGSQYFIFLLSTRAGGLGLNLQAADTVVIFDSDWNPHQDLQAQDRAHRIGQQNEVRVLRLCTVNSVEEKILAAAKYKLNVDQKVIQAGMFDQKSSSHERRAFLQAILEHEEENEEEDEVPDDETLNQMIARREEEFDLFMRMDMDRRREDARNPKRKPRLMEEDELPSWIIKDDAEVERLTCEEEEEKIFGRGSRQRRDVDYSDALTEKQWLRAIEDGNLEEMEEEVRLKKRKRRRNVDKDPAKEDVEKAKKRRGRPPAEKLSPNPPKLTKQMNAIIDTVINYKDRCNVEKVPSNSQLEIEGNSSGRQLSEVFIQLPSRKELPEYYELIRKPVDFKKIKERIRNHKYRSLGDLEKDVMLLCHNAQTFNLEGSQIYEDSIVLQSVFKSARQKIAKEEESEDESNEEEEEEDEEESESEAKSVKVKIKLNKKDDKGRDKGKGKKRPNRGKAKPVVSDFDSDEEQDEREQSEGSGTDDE

Compound | DC50 [1] | Dmax [2] | other results
Cc1ncsc1-c1ccc([C@H](C)NC(=O)[C@@H]2C[C@@H](O)CN2C(=O)[C@H](c2cc(N3CCN(C[C@H]4C[C@H](Oc5cc(N6C7CCC6CN(c6cc(-c8ccccc8O)nnc6N)C7)ccn5)C4)CC3)no2)C(C)C)cc1 [compound 498, (2S,4R)-1-((2S)-2-(3-(4-(((1r,3S)-3-((4-(3-(3-amino-6-(2-hydroxyphenyl)pyridazin-4-yl)-3,8-diazabicyclo[3.2.1]octan-8-yl)pyridin-2-yl)oxy)cyclobutyl)methyl)piperazin-1-yl)isoxazol-5-yl)-3-methylbutanoyl)-4-hydroxy-N-((S)-1-(4-(4-methylthiazol-5-yl)phenyl)ethyl)pyrrolidine-2-carboxamide] |  |  | DC50 (BRM degradation, read-out: BRM DC50): > 30 nM
Cc1ncsc1-c1ccc(CNC(=O)[C@@H]2C[C@@H](O)CN2C(=O)[C@@H](NC(=O)CN2CCN(CCOCCOCCCc3cc(N4C5CCC4CN(c4cc(-c6ccccc6O)nnc4N)C5)ccn3)CC2)C(C)(C)C)cc1 [compound 45, (2S,4R)-1-[(2S)-2-[2-[4-(2-[2-[3-(4-[3-[3-amino-6-(2-hydroxyphenyl)pyridazin-4-yl]-3,8-diazabicyclo[3.2.1]octan-8-yl]pyridin-2-yl)propoxy]ethoxy]ethyl)piperazin-1-yl]acetamido]-3,3-dimethylbutanoyl]-4-hydroxy-N-[[4-(4-methyl-1,3-thiazol-5-yl)phenyl]methyl]pyrrolidine-2-carboxamide] | > 30 nM | > 75% | 
Cc1ncsc1-c1ccc([C@H](C)NC(=O)C2C[C@@H](O)CN2C(=O)[C@H](c2onc(OCCN3CCC(O[C@H]4C[C@H](Oc5cc(N6C7CCC6CN(c6cc(-c8ccccc8O)nnc6N)C7)ccn5)C4)CC3)c2Cl)C(C)C)cc1 (stereo partly drawn) [compound 361, (2S,4R)-1-((2S)-2-(3-(2-(4-((1r,3S)-3-((4-(3-(3-amino-6-(2-hydroxyphenyl)pyridazin-4-yl)-3,8-diazabicyclo[3.2.1]octan-8-yl)pyridin-2-yl)oxy)cyclobutoxy)piperidin-1-yl)ethoxy)-4-chloroisoxazol-5-yl)-3-methylbutanoyl)-4-hydroxy-N-((S)-1-(4-(4-methylthiazol-5-yl)phenyl)ethyl)pyrrolidine-2-carboxamide] |  |  | DC50 [3]: > 30 nM
Cc1ncsc1-c1ccc([C@H](C)NC(=O)[C@@H]2C[C@@H](O)CN2C(=O)[C@@H](NC(=O)Cc2ccc(N3CCN(CCO[C@H]4C[C@H](Oc5cc(N6C7CCC6CN(c6cc(-c8ccccc8O)nnc6N)C7)ccn5)C4)CC3)nc2)C(C)(C)C)cc1 [compound 58, (2S,4R)-1-((2S)-2-(2-(6-(4-(2-((1r,3r)-3-((4-(3-(3-amino-6-(2-hydroxyphenyl)pyridazin-4-yl)-3,8-diazabicyclo[3.2.1]octan-8-yl)pyridin-2-yl)oxy)cyclobutoxy)ethyl)piperazin-1-yl)pyridin-3-yl)acetamido)-3,3-dimethylbutanoyl)-4-hydroxy-N-((S)-1-(4-(4-methylthiazol-5-yl)phenyl)ethyl)pyrrolidine-2-carboxamide] | > 30 nM | 50 to 75% | 
CC(C)[C@H](C(=O)N1C[C@H](O)C[C@H]1C(=O)N[C@@H](C)c1ccc(-n2ccnn2)cc1)c1cc(OCCN2CCN(CCOc3cc(N4C5CCC4CN(c4cc(-c6ccccc6O)nnc4N)C5)ccn3)CC2)no1 [compound 292, (2S,4R)-N-((S)-1-(4-(1H-1,2,3-triazol-1-yl)phenyl)ethyl)-1-((2S)-2-(3-(2-(4-(2-((4-(3-(3-amino-6-(2-hydroxyphenyl)pyridazin-4-yl)-3,8-diazabicyclo[3.2.1]octan-8-yl)pyridin-2-yl)oxy)ethyl)piperazin-1-yl)ethoxy)isoxazol-5-yl)-3-methylbutanoyl)-4-hydroxypyrrolidine-2-carboxamide] | > 30 nM |  | 
Cc1ncsc1-c1ccc(CNC(=O)[C@@H]2C[C@@H](O)CN2C(=O)[C@@H](NC(=O)COCCOCCOCCOc2cccc(N3C[C@H]4C[C@@H]3CN4c3cc(-c4ccccc4O)nnc3N)n2)C(C)(C)C)cc1 [compound 32, (2S,4R)-1-[(2S)-2-(1-[6-[(1R,4R)-5-[3-amino-6-(2-hydroxyphenyl)pyridazin-4-yl]-2,5-diazabicyclo[2.2.1]heptan-2-yl]pyridin-2-yl]-1,4,7,10-tetraoxadodecan-12-amido)-3,3-dimethylbutanoyl]-4-hydroxy-N-[[4-(4-methyl-1,3-thiazol-5-yl)phenyl]methyl]pyrrolidine-2-carboxamide] | > 30 nM | > 75% | 
Cc1ncsc1-c1ccc(CNC(=O)[C@@H]2C[C@@H](O)CN2C(=O)[C@@H](c2cc(OCCN3CCN(CCOc4cc(N5C6CCC5CN(c5cc(-c7ccccc7O)nnc5N)C6)ccn4)CC3)no2)C(C)C)cc1 [compound 42, (2S,4R)-1-[(2R)-2-[3-[2-(4-[2-[(4-[3-[3-amino-6-(2-hydroxyphenyl)pyridazin-4-yl]-3,8-diazabicyclo[3.2.1]octan-8-yl]pyridin-2-yl)oxy]ethyl]piperazin-1-yl)ethoxy]-1,2-oxazol-5-yl]-3-methylbutanoyl]-4-hydroxy-N-[[4-(4-methyl-1,3-thiazol-5-yl)phenyl]methyl]pyrrolidine-2-carboxamide] | < 2.5 nM | > 75% | 
Cc1cnsc1-c1ccc([C@H](C)NC(=O)[C@@H]2C[C@@H](O)CN2C(=O)[C@H](c2cc(OCCN3CCN(CCOc4cc(N5C6CCC5CN(c5cc(-c7ccccc7O)nnc5N)C6)ccn4)CC3)no2)C(C)C)cc1 [compound 265, (2S,4R)-1-((2S)-2-(3-(2-(4-(2-((4-(3-(3-amino-6-(2-hydroxyphenyl)pyridazin-4-yl)-3,8-diazabicyclo[3.2.1]octan-8-yl)pyridin-2-yl)oxy)ethyl)piperazin-1-yl)ethoxy)isoxazol-5-yl)-3-methylbutanoyl)-4-hydroxy-N-((S)-1-(4-(4-methylisothiazol-5-yl)phenyl)ethyl)pyrrolidine-2-carboxamide] | > 30 nM |  | 
CC(C)[C@@H](C(=O)N1C[C@H](O)C[C@H]1C(=O)N[C@@H](C)c1ccc(-n2ccnc2N)cc1)c1cc(N2CCC(CN3CCC(O[C@H]4C[C@H](Oc5cc(N6C7CCC6CN(c6cc(-c8ccccc8O)nnc6N)C7)ccn5)C4)CC3)CC2)no1 [compound 621, (2S,4R)-N-((S)-1-(4-(2-amino-1H-imidazol-1-yl)phenyl)ethyl)-1-((2R)-2-(3-(4-((4-((1r,3r)-3-((4-(3-(3-amino-6-(2-hydroxyphenyl)pyridazin-4-yl)-3,8-diazabicyclo[3.2.1]octan-8-yl)pyridin-2-yl)oxy)cyclobutoxy)piperidin-1-yl)methyl)piperidin-1-yl)isoxazol-5-yl)-3-methylbutanoyl)-4-hydroxypyrrolidine-2-carboxamide] |  |  | Dmax [4]: > 75%; DC50 [5]: < 2.5 nM
Cc1ncsc1-c1ccc([C@H](C)NC(=O)[C@@H]2C[C@@H](O)CN2C(=O)[C@H](c2cc(N3CCC(C#CCN4CCC(Oc5cc(N6C7CCC6CN(c6cc(-c8ccccc8O)nnc6N)C7)ccn5)CC4)CC3)no2)C(C)C)cc1 [compound 676, (2S,4R)-1-((2S)-2-(3-(4-(3-(4-((4-(3-(3-amino-6-(2-hydroxyphenyl)pyridazin-4-yl)-3,8-diazabicyclo[3.2.1]octan-8-yl)pyridin-2-yl)oxy)piperidin-1-yl)prop-1-yn-1-yl)piperidin-1-yl)isoxazol-5-yl)-3-methylbutanoyl)-4-hydroxy-N-((S)-1-(4-(4-methylthiazol-5-yl)phenyl)ethyl)pyrrolidine-2-carboxamide] | 2.5 to 10 nM |  | Dmax [6]: > 75%
Cc1ncsc1-c1ccc([C@H](CCCC(N)=O)NC(=O)[C@@H]2C[C@@H](O)CN2C(=O)[C@@H](c2cc(OCCN3CCC(O[C@H]4C[C@H](Oc5cc(N6C7CCC6CN(c6cc(-c8ccccc8O)nnc6N)C7)ccn5)C4)CC3)no2)C(C)C)cc1 [compound 556, (2S,4R)-N-((S)-5-amino-1-(4-(4-methylthiazol-5-yl)phenyl)-5-oxopentyl)-1-((2R)-2-(3-(2-(4-((1r,3R)-3-((4-(3-(3-amino-6-(2-hydroxyphenyl)pyridazin-4-yl)-3,8-diazabicyclo[3.2.1]octan-8-yl)pyridin-2-yl)oxy)cyclobutoxy)piperidin-1-yl)ethoxy)isoxazol-5-yl)-3-methylbutanoyl)-4-hydroxypyrrolidine-2-carboxamide] |  |  | Dmax [4]: > 75%; DC50 [5]: < 2.5 nM
Cc1ncsc1-c1ccc([C@H](C)NC(=O)[C@@H]2C[C@@H](O)CN2C(=O)[C@@H](c2cc(OCC[C@H]3CC[C@H](O[C@H]4C[C@H](Oc5cc(N6C7CCC6CN(c6cc(-c8ccccc8O)nnc6N)C7)ccn5)C4)CC3)no2)C(C)C)cn1 [compound 486, (2S,4R)-1-((2R)-2-(3-(2-((1R,4R)-4-((1r,3R)-3-((4-(3-(3-amino-6-(2-hydroxyphenyl)pyridazin-4-yl)-3,8-diazabicyclo[3.2.1]octan-8-yl)pyridin-2-yl)oxy)cyclobutoxy)cyclohexyl)ethoxy)isoxazol-5-yl)-3-methylbutanoyl)-4-hydroxy-N-((S)-1-(6-(4-methylthiazol-5-yl)pyridin-3-yl)ethyl)pyrrolidine-2-carboxamide] |  |  | Dmax (SW1573, % degraded, when tested at the top concentration of between 0.3 and 10 μM, read-out: BRM Dmax (%)): > 75%; DC50 [3]: < 2.5 nM
Cc1nccn1-c1ccc([C@H](C)NC(=O)[C@@H]2C[C@@H](O)CN2C(=O)[C@@H](c2cc(N3CCC(CN4CCC(O[C@H]5C[C@H](C#C[C@@H](C)n6cc(-c7cc(-c8ccccc8O)nnc7N)cn6)C5)CC4)CC3)no2)C(C)C)cc1 (single isomer, unassigned) [compound 638] | < 2.5 nM |  | Dmax [6]: > 75%
